Assay results reported in PMC8303988, “Cholate Disrupts Regulatory Functions of Cytochrome c Oxidase” (Cells, 2021).

Test system: T1, cholate-CytOx; isolated cytochrome c oxidase from bovine heart
T1 construct: gene MT-CO1; with Cytochrome c oxidase subunit 1; Cytochrome c oxidase subunit 2; Cytochrome c oxidase subunit 3; Cytochrome c oxidase subunit 5A, mitochondrial; Cytochrome c oxidase subunit 5B, mitochondrial; Cytochrome c oxidase subunit 6A2, mitochondrial; Cytochrome c oxidase subunit 6B1; Cytochrome c oxidase subunit 6C; Cytochrome c oxidase subunit 7A1, mitochondrial; Cytochrome c oxidase subunit 7B, mitochondrial; Cytochrome c oxidase subunit 7C, mitochondrial; Cytochrome c oxidase subunit 8B, mitochondrial
Test: UV/VIS absorption spectroscopy, displacement of bound cholate by ADP
Assay type: binding, Bos taurus
Settings: 0 °C, pH 7.4; cholate bound during purification; nucleotide sites

C[C@H](CCC(=O)O)[C@H]1CC[C@H]2[C@@H]3[C@H](O)C[C@@H]4C[C@H](O)CC[C@]4(C)[C@H]3C[C@H](O)[C@]12C [cholate]
UV/VIS absorption spectroscopy, displacement of bound cholate by ADP: exchange of cholate by ADP is a very slow process with a half-time of about
